The target of this assay is β1AR (Homo sapiens, UniProt P08588). As to the kind of experiment: TR-FRET receptor-ligand saturation binding assay, Tag-lite β1AR cells. The following applies: 2 h at room temperature, read-out: Kd app. The procedure: To confirm whether the affinity of carazolol-KK114 (24) is sufficient for the intended imaging experiments and to evaluate its β2/β1AR selectivity, we performed a TR-FRET assay in Tag-lite β1AR or β2AR transfected cells (Cisbio) labeled with Tb^3+ cryptate (Lumi4-Tb) (Fig. 3c)[39]. […] (Fig. 3d, Supplementary Fig. 5b). The high affinities of both fluorescent ligands enabled the imaging experiments.
Chain of β1AR (P08588 whole entry): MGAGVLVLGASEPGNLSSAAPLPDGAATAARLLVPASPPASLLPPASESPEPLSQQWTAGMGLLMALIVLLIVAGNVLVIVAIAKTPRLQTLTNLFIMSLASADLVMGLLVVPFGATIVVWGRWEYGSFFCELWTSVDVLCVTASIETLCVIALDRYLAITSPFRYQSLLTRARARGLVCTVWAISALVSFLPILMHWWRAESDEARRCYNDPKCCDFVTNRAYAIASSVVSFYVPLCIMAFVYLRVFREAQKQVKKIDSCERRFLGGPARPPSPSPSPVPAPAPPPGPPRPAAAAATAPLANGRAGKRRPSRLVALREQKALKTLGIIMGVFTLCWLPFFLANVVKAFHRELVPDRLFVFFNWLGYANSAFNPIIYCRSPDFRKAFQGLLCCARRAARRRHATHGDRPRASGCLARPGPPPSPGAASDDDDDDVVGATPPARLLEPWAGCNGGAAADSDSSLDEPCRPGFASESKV
K d determination was performed on Tag-lite β1AR (Cisbio, Cat. No. C1TT1BETA1) or β2AR (Cisbio, Cat. No. C1TT1BETA2) Tb^3+ cryptate labeled transfected cells. The β1AR or β2AR cells labeled with SNAP-Terbium interact with the specific ligand labeled with the corresponding fluorophore. […] 20 µl of a fluorescent probe or control compound in Tag-lite buffer was added to each well and incubated for 2 h at room temperature (20 °C) before readout. FRET readout was performed on a multiwell plate reader Spark 20 M (Tecan) at room temperature. […] The ratio of the acceptor and donor emission signals was calculated for each individual well using equation (3):3 Ratio=Signal655nm−BackgroundSignal/Signal620nm−BackgroundSignal
Luminescence background signal was measured in wells containing 40 µl of Tag-lite buffer only. Specific binding was calculated by subtracting nonspecific binding ratio from total binding ratio at each fluorescent ligand concentration. […]

Take `Cc1c(CCC(=O)NCCOCCOCCNC(=O)CCN(C)C(=O)c2c(F)c(F)c(F)c(F)c2C2=c3cc4c5c(c3Oc3c2cc2c6c3CCCN6C(C)(C)C=C2CS(=O)(=O)O)CCC[N+]=5C(C)(C)C=C4CS(=O)(=O)[O-])cccc1CC(C)(C)NCC(O)c1ccc(O)c2c1OCC(=O)N2` (stereo not shown) [BI-PEG-KK114 (18)]: the Kd is 63.4 ± 6.6 nM.
